Experiment [1] has as its target T1, PRMT5 (Homo sapiens, UniProt O14744).
T1 construct: purchased Viva (custom protein)
Description: PRMT5 biochemical IC50 assay with SAM as cofactor. The note with it: PRMT5, SAM as cofactor; read-out: SAM IC50.

Experiment [2] concerns the target T1, PRMT5. Description: PRMT5 biochemical IC50 assay with no cofactor. The note with it: PRMT5, no cofactor; read-out: No Cofactor/rel IC50. The source says:
Table 1 indicates IC50 values (μM) against PRMT5 for exemplary compounds in the presence of SAM as cofactor, with no cofactor, and with MTA as cofactor, respectively (columns 4-6). […] Ki values can be calculated from the IC50 values as described in the Examples section. As detailed in the Examples section, for the assay performed in the presence of SAM, IC50=Ki×1.5 (Ki=IC50/1.5).

Experiment [3] deals with T1, PRMT5. In words: PRMT5 biochemical IC50 assay with MTA as cofactor. The note with it: PRMT5, MTA as cofactor; read-out: MTA IC50.
The subject of experiment [4] is HAP1 MTAP-intact cell line. Description: SDMA in-cell western assay, HAP1 MTAP-intact. It is filed as cell-based. Particulars: Homo sapiens, HAP1, SDMA in-cell western, HAP1 MTAP-intact; read-out: MTAP HAP1 intact IC50. The essentials:
(§1)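 MTAP-null vs endogenous-MTAP HAP1 isogenic cells; in-cell western SDMA readout; IC50 per line.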

Experiment [5] deals with HAP1 MTAP-deleted cell line. In words: SDMA in-cell western assay, HAP1 MTAP-deleted. The format is cell-based. The note with it: for IC50: Homo sapiens, HAP1, SDMA in-cell western, HAP1 MTAP-deleted, read-out: HAP1 MTAP deleted IC50; for MTAP intact/deleted ratio: IC50 ratio HAP1 MTAP-intact / HAP1 MTAP-deleted, SDMA in-cell western. In a few lines: as §1
The subject of experiment [6] is HAP1 MTAP-deleted cell line. Description: Viability assay, MTAP-deleted cell line. It is filed as cell-based. The note with it: Homo sapiens, HAP1, viability assay, MTAP-deleted cell line; read-out: HAP1 MTAP deleted viability. An excerpt: Table 1 additionally indicates IC50 values in a viability assay for the MTAP-deleted cell line (column 10), indicating the effect of treatment with compound on cell survival.

Molecules are shown by their SMILES. Where only a bound is given, the exact number is not on record here.

T1 sequence (O14744 whole entry): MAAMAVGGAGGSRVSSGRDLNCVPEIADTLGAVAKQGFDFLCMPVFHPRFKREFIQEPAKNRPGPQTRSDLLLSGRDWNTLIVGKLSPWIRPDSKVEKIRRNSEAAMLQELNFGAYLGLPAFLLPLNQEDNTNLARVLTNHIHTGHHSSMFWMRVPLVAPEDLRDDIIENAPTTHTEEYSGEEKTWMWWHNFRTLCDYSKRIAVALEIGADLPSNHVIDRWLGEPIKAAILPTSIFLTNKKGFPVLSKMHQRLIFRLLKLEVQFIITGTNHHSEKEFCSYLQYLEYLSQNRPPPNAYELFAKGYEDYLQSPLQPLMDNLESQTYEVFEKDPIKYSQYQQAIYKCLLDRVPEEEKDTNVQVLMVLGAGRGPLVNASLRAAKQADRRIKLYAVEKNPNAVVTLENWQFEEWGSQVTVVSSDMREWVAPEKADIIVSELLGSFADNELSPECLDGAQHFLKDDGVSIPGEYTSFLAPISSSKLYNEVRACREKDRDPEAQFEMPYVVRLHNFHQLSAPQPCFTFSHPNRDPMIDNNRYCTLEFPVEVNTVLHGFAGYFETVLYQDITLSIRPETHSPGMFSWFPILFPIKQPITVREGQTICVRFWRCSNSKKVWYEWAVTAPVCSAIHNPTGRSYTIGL
T1 sequence (Q9BQA1 whole entry partner): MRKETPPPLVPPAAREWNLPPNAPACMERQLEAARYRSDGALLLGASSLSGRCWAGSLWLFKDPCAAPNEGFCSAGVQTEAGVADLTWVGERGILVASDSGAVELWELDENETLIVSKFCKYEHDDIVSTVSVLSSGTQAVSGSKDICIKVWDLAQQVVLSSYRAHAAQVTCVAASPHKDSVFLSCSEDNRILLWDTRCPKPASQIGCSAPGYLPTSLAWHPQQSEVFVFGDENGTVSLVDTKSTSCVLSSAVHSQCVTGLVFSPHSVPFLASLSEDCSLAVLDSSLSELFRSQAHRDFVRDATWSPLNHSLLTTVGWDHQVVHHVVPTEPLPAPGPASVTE

For the compound `Cc1cc(NC(=O)C(=O)N2CCCC[C@H]2c2cccc(N(C)C)c2)cnc1N` (single isomer, unassigned) [Compound 384], the IC50 at PRMT5 [1] is 50 to 500 nM; at PRMT5 [2], below 50 nM; on PRMT5 [3], below 50 nM; in experiment [4], above 1000 nM; in experiment [5], below 100 nM; in experiment [6] it was below 1000 nM. Moreover, the MTAP intact/deleted ratio entry in experiment [5] is on record as “A (an IC50 ratio greater than or equal to 10 fold)”.

Turning to `Cc1cc(NC(=O)C(=O)N2C[C@H](C)CC[C@H]2c2cccc(N(C)C)c2)cnc1N` (single isomer, unassigned) [Compound 386], the IC50 was 50 to 500 nM at PRMT5 [1]; below 50 nM on PRMT5 [2]; below 50 nM at PRMT5 [3]; 100 to 1000 nM in experiment [4]; below 100 nM in experiment [5]; below 1000 nM in experiment [6]. The MTAP intact/deleted ratio result in experiment [5] is on record as “A (an IC50 ratio greater than or equal to 10 fold)”.

Turning to `Cc1cc(NC(=O)C(=O)N2CCCC[C@@H]2c2cccc(N(C)C)c2)cnc1N` (single isomer, unassigned) [Compound 390], the IC50 on PRMT5 [1] is 50 to 500 nM; on PRMT5 [2] it was above 500 nM; at PRMT5 [3], 50 to 500 nM; in experiment [4] it was above 1000 nM; in experiment [5], above 1000 nM; in experiment [6], above 10000 nM. The MTAP intact/deleted ratio result in experiment [5] is “B (an IC50 ratio greater than or equal to 3 fold but lower than 10 fold)”.

As to `Cc1c(NC(=O)C(=O)N2C[C@H](C)CC[C@H]2c2ccc(O)cc2)cnc(N)c1C` (single isomer, unassigned) [Compound 391], the IC50 was above 500 nM at PRMT5 [1]; above 500 nM on PRMT5 [2]; above 500 nM on PRMT5 [3]; above 1000 nM in experiment [4]; above 1000 nM in experiment [5]; above 10000 nM in experiment [6]. Besides, the MTAP intact/deleted ratio result in experiment [5] is reported as “C (an IC50 ratio of less than 3 fold)”.

Take `C[C@@H]1CC[C@@H]([C@H]2CC[C@@H](O)CC2)N(C(=O)C(=O)Nc2cncc(C(N)=O)c2)C1` (single isomer, unassigned) [Compound 393]: the IC50 on PRMT5 [1] is 50 to 500 nM; at PRMT5 [2], above 500 nM; on PRMT5 [3], 50 to 500 nM; in experiment [4], above 1000 nM; in experiment [5], above 1000 nM; in experiment [6], above 10000 nM. Also, the MTAP intact/deleted ratio entry in experiment [5] was “B (an IC50 ratio greater than or equal to 3 fold but lower than 10 fold)”.

For the compound `C[C@H]1CC[C@H]([C@H]2CC[C@H](O)CC2)N(C(=O)C(=O)Nc2cncc(C(N)=O)c2)C1` (single isomer, unassigned) [Compound 394], the IC50 at PRMT5 [1] is 50 to 500 nM; at PRMT5 [2], 50 to 500 nM; on PRMT5 [3], below 50 nM; in experiment [4] it was above 1000 nM; in experiment [5], 100 to 1000 nM; in experiment [6], 1000 to 10000 nM. Further, in experiment [5], the MTAP intact/deleted ratio result is “A (an IC50 ratio greater than or equal to 10 fold)”.

Take `C[C@@H]1CC[C@@H]([C@H]2CC[C@H](O)CC2)N(C(=O)C(=O)Nc2cncc(C(N)=O)c2)C1` (single isomer, unassigned) [Compound 395]: the IC50 on PRMT5 [1] was above 500 nM; on PRMT5 [2], above 500 nM; on PRMT5 [3], above 500 nM; in experiment [4], above 1000 nM; in experiment [5], above 1000 nM; in experiment [6] it was above 10000 nM. Further, in experiment [5], the MTAP intact/deleted ratio entry is on record as “C (an IC50 ratio of less than 3 fold)”.

Regarding `C[C@H]1CC[C@H](c2ccc(N)cc2)N(C(=O)C(=O)Nc2cncc(C(N)=O)c2)C1` (single isomer, unassigned) [Compound 398], the IC50 at PRMT5 [1] was above 500 nM; at PRMT5 [2], above 500 nM; on PRMT5 [3], above 500 nM; in experiment [4] it was above 1000 nM; in experiment [5], above 1000 nM; in experiment [6] it was above 10000 nM. Further, the MTAP intact/deleted ratio entry in experiment [5] was “B (an IC50 ratio greater than or equal to 3 fold but lower than 10 fold)”.

On to `Cc1cc(NC(=O)C(=O)N2CC[C@@H](C#N)C[C@H]2c2ccccc2)cnc1N` (single isomer, unassigned) [Compound 399], for which the IC50 on PRMT5 [1] is 50 to 500 nM; on PRMT5 [2], 50 to 500 nM; on PRMT5 [3], below 50 nM; in experiment [4], above 1000 nM; in experiment [5], below 100 nM; in experiment [6], 1000 to 10000 nM. Besides, the MTAP intact/deleted ratio entry in experiment [5] is “A (an IC50 ratio greater than or equal to 10 fold)”.

For the compound `Cc1cc(NC(=O)C(=O)N2[C@H](C)CCC[C@@H]2c2ccccc2)cnc1N` (single isomer, unassigned) [Compound 415], the IC50 at PRMT5 [1] is 50 to 500 nM; at PRMT5 [2] it was 50 to 500 nM; on PRMT5 [3], below 50 nM; in experiment [4], 100 to 1000 nM; in experiment [5] it was below 100 nM; in experiment [6], 1000 to 10000 nM. Moreover, the MTAP intact/deleted ratio entry in experiment [5] is on record as “A (an IC50 ratio greater than or equal to 10 fold)”.

In the case of `Cc1cc(NC(=O)C(=O)N2[C@@H](C)CCC[C@H]2c2ccccc2)cnc1N` (single isomer, unassigned) [Compound 417], the IC50 at PRMT5 [1] is 50 to 500 nM; on PRMT5 [2], above 500 nM; on PRMT5 [3] it was 50 to 500 nM; in experiment [4] it was above 1000 nM; in experiment [5] it was 100 to 1000 nM; in experiment [6], above 10000 nM. Also, the MTAP intact/deleted ratio entry in experiment [5] is on record as “B (an IC50 ratio greater than or equal to 3 fold but lower than 10 fold)”.

For the compound `Cc1c(NC(=O)C(=O)N2[C@@H](C)CCC[C@H]2c2ccccc2)cnc(N)c1C` (single isomer, unassigned) [Compound 425], the IC50 on PRMT5 [1] was 50 to 500 nM; at PRMT5 [2] it was 50 to 500 nM; on PRMT5 [3] it was below 50 nM; in experiment [4], above 1000 nM; in experiment [5], 100 to 1000 nM; in experiment [6], 1000 to 10000 nM. Further, the MTAP intact/deleted ratio result in experiment [5] was “A (an IC50 ratio greater than or equal to 10 fold)”.

With `Cc1cc(NC(=O)C(=O)N2C[C@H](C)CC[C@H]2[C@H]2CC[C@H](O)CC2)cnc1N` (single isomer, unassigned) [Compound 431], the IC50 was 50 to 500 nM at PRMT5 [1]; 50 to 500 nM at PRMT5 [2]; below 50 nM on PRMT5 [3]; above 1000 nM in experiment [4]; below 100 nM in experiment [5]; 1000 to 10000 nM in experiment [6]. Further, the MTAP intact/deleted ratio entry in experiment [5] is on record as “A (an IC50 ratio greater than or equal to 10 fold)”.

For `C[C@@H]1CC[C@@H](c2ccc3c(c2)CCCN3)N(C(=O)C(=O)Nc2cncc(C(N)=O)c2)C1` (single isomer, unassigned) [Compound 432], the IC50 was 50 to 500 nM at PRMT5 [1]; 50 to 500 nM at PRMT5 [2]; below 50 nM on PRMT5 [3]; above 1000 nM in experiment [4]; below 100 nM in experiment [5]; 1000 to 10000 nM in experiment [6]. In addition, the MTAP intact/deleted ratio entry in experiment [5] is recorded as “A (an IC50 ratio greater than or equal to 10 fold)”.

For the compound `C[C@H]1CC[C@H](c2ccccc2)N(C(=O)C(=O)Nc2cncc(C(N)=O)c2)[C@H]1C` (single isomer, unassigned) [Compound 433], the IC50 on PRMT5 [1] is 50 to 500 nM; on PRMT5 [2], above 500 nM; on PRMT5 [3], below 50 nM; in experiment [4], above 1000 nM; in experiment [5], below 100 nM; in experiment [6] it was above 10000 nM. Moreover, the MTAP intact/deleted ratio result in experiment [5] is “A (an IC50 ratio greater than or equal to 10 fold)”.

For the origin of these results see patent publication US11999727B2 (Tango Therapeutics, Inc., priority 2020, dated 2024).
